In PMC9227536, “Prediction of Pharmacokinetics of IDP-73152 in Humans Using Physiologically-Based Pharmacokinetics” (Pharmaceutics, 2022):

Experiments:
[1] = PBPK model prediction, rats
Excerpt: (§1) In this study, the PBPK model involving ten tissues (i.e., adipose tissue, brain, heart, kidney, liver, lung, muscle, skin, spleen, and testis (Figure 2; see Appendix A for detailed mathematical descriptions)) was considered to be applicable for the description of IDP-73152 PK in rats, mice, dogs, and humans. Physiological variables were obtained from the literature; they are summarized in Supplementary Table S1.
In addition, from metabolic stability studies, it was evident that IDP-73152 was metabolically unstable in the incubations containing liver microsomes (from all species)/hepatocytes (from rats) and in the rat plasma. […] Accordingly, during model development, we initially assumed that IDP-73152 was entirely eliminated by the metabolism in the liver (namely, CLh) and in the blood (namely, CLblood) in rats: For other species (i.e., mice, dogs, and humans), the elimination was assumed to be primarily mediated by metabolism in the liver. From the results of in vitro metabolic stability studies, the hepatic clearance (CLh) in rats was estimated under the assumption that the well-stirred liver model was adequate for IDP-73152 [29]:(9) CLh=QLI×BP×fu,p×CLu,int,H/QLI×BP+fu,p×CLu,int,H, where QLI, and fu,p represent the liver blood flow and the unbound fraction of IDP-73152 in the plasma, respectively.
For the estimation of the volume of the distribution of IDP-73512 in rats, the steady-state volume of distribution (Vss) was calculated using the following equation [30]:(10) Vss=VP+Vrbc×EP+∑VT,i×KP,ss,i, where Vp, Vrbc, and VT,i are the volumes of plasma, red blood cells, and tissues, respectively. The erythrocyte-to-plasma partition coefficient (EP), is calculated by EP=1+(BP−1)/Hematocrit . The KP,ss for each tissue obtained from Equation (8) was applied for Equation (10). For the case of non-eliminating organs, the KP,ss was regarded as the tissue-to-plasma partition coefficient (KP) in PBPK equations (Appendix A). For the case of the liver—i.e., the eliminating organ—the KP,ss (KP,ss,LI) had to be corrected to account for the equilibrium being altered by the elimination. Thus, a PBPK-operative KP for liver (KP,LI) was calculated using the following equation [31]:(11) KP,LI=KP,ss,LI/(1−ER), where ER is the hepatic extraction ratio of the compound (i.e., CLh/(QLI·BP)). In this study, a compartmental absorption and transit (CAT) model consisting of stomach and five intestinal segments was considered for the description of the intestinal absorption kinetics of IDP-73152 in animals and humans. We assumed that the initial compartment denoted the stomach (Equation (12)), and the subsequent three compartments represented the small intestine and two additional compartments for the large intestine (i.e., a total of six compartments, with absorption occurring in the five intestinal compartments) (Equation (13)). […]
For the intestine, viz. i = 1~5:(13) dMi/dt=Kt,i−1×Mi−1−(Kt,i+ka,i)×Mi, where Ms is the amount of drug in the stomach; Mi is the amount of drug in the i-th intestinal segment; Ks, Kt,i, and ka,i are the rate constants of gastric emptying, intestinal transit, and the segmental absorption rate, respectively. […] The absorption rate constant in the intestinal segments in humans, ka,i,human, was assumed to be identical along the segments and calculated as follows: first, Peff was empirically estimated from the Caco-2 cell permeability (Papp):(14) LogPeff=0.4926×LogPapp−0.1454 […]

[2] = PBPK model prediction, humans
Excerpt: as §1
For the estimation of the volume of the distribution of IDP-73512 in rats, the steady-state volume of distribution (Vss) was calculated using the following equation [30]:(10) Vss=VP+Vrbc×EP+∑VT,i×KP,ss,i, where Vp, Vrbc, and VT,i are the volumes of plasma, red blood cells, and tissues, respectively. The erythrocyte-to-plasma partition coefficient (EP), is calculated by EP=1+(BP−1)/Hematocrit . The KP,ss for each tissue obtained from Equation (8) was applied for Equation (10). For the case of non-eliminating organs, the KP,ss was regarded as the tissue-to-plasma partition coefficient (KP) in PBPK equations (Appendix A). For the case of the liver—i.e., the eliminating organ—the KP,ss (KP,ss,LI) had to be corrected to account for the equilibrium being altered by the elimination. Thus, a PBPK-operative KP for liver (KP,LI) was calculated using the following equation [31]:(11) KP,LI=KP,ss,LI/(1−ER), where ER is the hepatic extraction ratio of the compound (i.e., CLh/(QLI·BP)). In this study, a compartmental absorption and transit (CAT) model consisting of stomach and five intestinal segments was considered for the description of the intestinal absorption kinetics of IDP-73152 in animals and humans. We assumed that the initial compartment denoted the stomach (Equation (12)), and the subsequent three compartments represented the small intestine and two additional compartments for the large intestine (i.e., a total of six compartments, with absorption occurring in the five intestinal compartments) (Equation (13)). The differential equations describing the rate of drug absorption and transit in the gastrointestinal tract can be written as:
For the intestine, viz. i = 1~5:(13) dMi/dt=Kt,i−1×Mi−1−(Kt,i+ka,i)×Mi, where Ms is the amount of drug in the stomach; Mi is the amount of drug in the i-th intestinal segment; Ks, Kt,i, and ka,i are the rate constants of gastric emptying, intestinal transit, and the segmental absorption rate, respectively. […] The absorption rate constant in the intestinal segments in humans, ka,i,human, was assumed to be identical along the segments and calculated as follows: first, Peff was empirically estimated from the Caco-2 cell permeability (Papp):(14) LogPeff=0.4926×LogPapp−0.1454
Then, ka,i,human for the intestinal segments i = 1~5 was calculated by (15) ka,1~5,human=2×Peff/R […]

[3] = Unbound fraction in plasma (rapid equilibrium dialysis), human; assay type: in vitro ADME; conditions: humans plasma, 0.3, 1, 3 μM, RED 5 h, read-out: fu,p
Method: The unbound fractions of IDP-73152 in various matrices were measured according to the manufacturer’s instructions for the rapid equilibrium dialysis (RED) device (ThermoFisher Scientific, Waltham, MA, USA). Briefly, IDP-73152 was added to the plasma or the microsomal/hepatocyte incubation buffer from various species (i.e., mouse, rat, dog, and human for microsomal incubation; rat for hepatocyte incubation) to obtain final concentrations of the compound at 0.3, 1, and 3 μM. After the membrane insert was placed in the RED plate, the solution containing IDP-73152 was added (400 µL) to the sample chamber, and the dialysis buffer (600 μL) was added to the buffer chamber. The RED plate was sealed with parafilm and then incubated at 37 °C in the orbital shaker (Lab Companion, Daejeon, Korea) at 100 rpm for 5 h. After a 50 μL aliquot was aspirated from both the sample and buffer chambers, an equal volume of protein-free buffer or blank medium was replaced in the aspirated sample or buffer to render the matrices compositionally identical. The IDP-73152 concentration in the buffer/sample chambers (i.e., CBuffer Chamber and CSample Chamber) was determined by an assay. Thus, the fraction unbound was defined as:(2) % Fraction unbound=(CBuffer Chamber/CSample Chamber)×100%

For `CC(C)(C)[C@H](NC(=O)[C@H](CC1CCCC1)CN(O)C=O)C(=O)N1CCC(NCc2cc(F)c(F)cc2F)CC1` [IDP-73152], the “AUC ratio (Predicted AUCinf/Observed AUCinf)” value ([1]; intravenous 2.5 mg/kg) was 1.09, the “AUC ratio (Predicted AUCinf/Observed AUCinf)” value ([1]; intravenous 10 mg/kg) was 1.14 and the “Cmax ratio without the scaling (SF)” value ([1]; oral) was 2.36. The “AUC ratio (Predicted AUCinf/Observed AUCinf)” value ([1]; oral 20 mg/kg) was 1.03, the “Cmax ratio (Predicted Cmax/Observed Cmax)” value ([1]; oral 20 mg/kg) was 1.02 and the AUC ratio ([2]; oral 640 mg) was 1.00. For the same compound, the Cmax ratio ([2]; oral 640 mg) was 0.498, the AUC ratio ([2]; oral 1280 mg) was 1.12 and the Cmax ratio ([2]; oral 1280 mg) was 0.671. It also gave a fraction unbound at 5 h [3] of 0.0744 ± 0.0019.
